Reference: patent EP0679649B1, “2,3-Dihydrobenzofuran Derivatives” (Asahi Kasei Kogyo Kabushiki Kaisha, priority 1993, dated 1994)

Experiments:
male Wistar strain rats = experiment: Anti-depression activity (forced swimming test using rats); type: in vivo, rat; details: for Time spent in immobile state: 30 minutes before test, observed for 6 minutes, 6 rats, physiological saline 200; for time spent in the immobile state (result in words): hydrochloride, 30 mg/kg and 60 mg/kg p.o.
Source text: When a rat is put in a water tank, the rat struggles for its life to get out of the water (that is, the rat starts a "forced swimming"). If the rat finds that it is impossible for him to get out, the rat stops swimming and assumes an immobile state. It has been known that the administration of an antidepressant can cause a violent swimming motion in the rat for getting out of the water, with a result that the time spent in the immobile state is shortened. The shortening of the time in the immobile state of the rat in the forced swimming test by the administration of the antidepressant is well correlated to the clinical anti-depression effect. Accordingly, in developing antidepressants, the forced swimming test using a rat is the most reliable screening method. In the present test, male Wistar strain rats were used. Compounds obtained in Examples 1, 17 and 18 of the present invention (each in the form of a hydrochloride thereof) were, individually, orally administered to a rat. 30 minutes after the administration, the rat was put in a water tank and then, observed for 6 minutes. The time of the rat spent in the immobile state was measured.

adrenaline α1 receptor = experiment: Affinity for adrenaline α1 receptor (inhibition of 3H-Prazosin binding to rat cerebral cortex membrane fraction); details: for Ki: rat cerebral cortex membrane fraction, radioligand 3H-Prazosin, compounds tested as hydrochloride salt
Procedure: A male SD strain rat (7-week old; Charles River) was decapitated, and brain was taken out therefrom quickly. Cerebral cortex of the rat was separated and extracted at […] under ice cooling. The extracted cerebral cortex was frozen at -80 °C for 24 hours or longer. This frozen system was gradually thawed under ice cooling and then, 50 mM Tris-HCl buffer (pH 7.4) was added to the brain under ice cooling to obtain a suspension. The resultant suspension was homogenized, and then subjected to centrifugation at 48000 g for 15 minutes, to thereby obtain a precipitate. The precipitate thus obtained was washed twice and resuspended in the same Tris-HCl buffer as used above. […] The total volume amount of the reaction mixture was 1 ml. The resultant reaction mixture was subjected to suction filtration using a Whatman GF/C filter, and the filter was washed three times in 50 mM Tris-HCl buffer (pH 7.4, 4 ml), transferred to a vial and then, the radioactivity of Prazosin absorbed on the filter was determined using a liquid scintillation counter. […] Further, substantially the same procedure as mentioned above was repeated, except that, instead of Prazosin, a test compound was used in a predetermined concentration. […] The binding inhibition ratios were plotted, taking the logarithmic value of the concentration of the test compound as the abscissa value, and the binding inhibition ratio as the ordinate value. Then, a curve was drawn by non-linear least square method.

serotonin 1A receptor = target: T1, serotonin 1A receptor (Rattus norvegicus, UniProt P19327); experiment: Affinity for serotonin 1A receptor (inhibition of 3H-8-OH-DPAT binding to rat hippocampal membrane fraction); details: radioligand 3H-8-OH-DPAT, compounds tested as hydrochloride salt, read-out: 5-HT1A Ki
T1 construct: The resultant precipitate was used as a rat hippocampal membrane fraction in the following procedures; from tissue; host or cells: brain (hippocampal) membrane fraction of male SD rat
T1 sequence (P19327 1-422): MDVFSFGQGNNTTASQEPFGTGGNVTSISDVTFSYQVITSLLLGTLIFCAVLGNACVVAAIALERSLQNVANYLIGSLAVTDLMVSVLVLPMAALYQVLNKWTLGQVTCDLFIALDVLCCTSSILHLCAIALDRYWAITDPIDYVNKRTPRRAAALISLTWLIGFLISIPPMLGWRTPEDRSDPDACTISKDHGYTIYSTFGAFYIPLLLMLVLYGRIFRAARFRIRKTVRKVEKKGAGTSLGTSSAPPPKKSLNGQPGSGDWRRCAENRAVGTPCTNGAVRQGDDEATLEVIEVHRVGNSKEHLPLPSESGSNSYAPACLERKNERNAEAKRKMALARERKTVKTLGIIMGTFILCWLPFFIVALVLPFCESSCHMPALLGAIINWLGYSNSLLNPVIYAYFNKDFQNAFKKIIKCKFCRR

mice = experiment: Toxicity test (intraperitoneal administration to mice); type: in vivo; details: intraperitoneally administered to mice, 100 mg/kg
[1] = Dose 30 mg/kg p.o. (hydrochloride), 30 mg/kg

Row | Molecule | Ki (adrenaline α1 receptor) [nM] | Ki (serotonin 1A receptor) [nM] | further results
1 | O=C(NCCCCNCC1Cc2ccccc2O1)c1ccccc1 (single isomer, unassigned; (+)) [Example 17, (+)-2-{N-(4-benzoylamino)butyl}aminomethyl-2,3-dihydrobenzo[b]furan] |  |  | Time spent in immobile state (male Wistar strain rats; Dose 60 mg/kg p.o. (hydrochloride)): 142 s; time spent in the immobile state (result in words) (male Wistar strain rats): remarkably shortened the time spent in the immobile state
2 | O=C(NCCCCNCC1Cc2ccccc2O1)c1ccccc1 (single isomer, unassigned; (-)) [Example 18, (-)-2-{N-(4-benzoylaminobutyl)}aminomethyl-2,3-dihydrobenzo[b]furan] | 270 | 1.3 | Time spent in immobile state (male Wistar strain rats; [1]): 142 s; time spent in the immobile state (result in words) (male Wistar strain rats): remarkably shortened the time spent in the immobile state
3 | O=C(NCCCCNCC1Cc2ccccc2O1)c1ccccc1 (stereo not shown) [Example 1, 2-{N-(4-benzoylaminobutyl)}aminomethyl-2,3-dihydrobenzo[b]furan] | 350 | 2.9 | mortality / toxicity (mice): none of the mice died; Time spent in immobile state (male Wistar strain rats; [1]): 117 s; time spent in the immobile state (result in words) (male Wistar strain rats): remarkably shortened the time spent in the immobile state
4 | O=S(=O)(NCCCCNCC1Cc2ccccc2O1)c1ccccc1 (stereo not shown) [Example 2, 2-{N-(4-benzenesulfonamidobutyl)}aminomethyl-2,3-dihydrobenzo[b]furan] | 270 | 11 | 
5 | Cc1cccc(C(=O)NCCCCNCC2Cc3ccccc3O2)c1 (stereo not shown) [Example 4, 2,3-dihydro-2-[N-{4-(3-methylbenzoylamino)butyl}]aminomethylbenzo[b]furan] | 270 | 1.2 | 
6 | Cc1ccc(C(=O)NCCCCNCC2Cc3ccccc3O2)cc1 (stereo not shown) [Example 5, 2,3-dihydro-2-[N-{4-(4-methylbenzoylamino)-butyl}]aminomethylbenzo[b]furan] | 290 | 12 | 
7 | COc1cccc(C(=O)NCCCCNCC2Cc3ccccc3O2)c1 (stereo not shown) [Example 7, 2,3-dihydro-2-[N-{4-(3-methoxybenzoylamino)butyl}]aminomethylbenzo[b]furan] | 340 | 4.3 | 
8 | O=C(NCCCCNCC1Cc2ccccc2O1)c1ccccc1F (stereo not shown) [Example 9, 2,3-dihydro-2-[N-{4-(2-fluorobenzoylamino)butyl}]aminomethylbenzo[b]furan] | 330 | 8.2 | 
9 | O=C(NCCCCNCC1Cc2ccccc2O1)c1cccc(F)c1 (stereo not shown) [Example 10, 2,3-dihydro-2-[N-{4-(3-fluorobenzoylamino)butyl}]aminomethylbenzo[b]furan] | 420 | 3 | 
10 | O=C(NCCCCNCC1Cc2ccccc2O1)c1ccc(F)cc1 (stereo not shown) [Example 11, 2,3-dihydro-2-[N-{4-(4-fluorobenzoylamino)butyl}]aminomethylbenzo[b]furan] | 300 | 2.6 | 
11 | O=C(NCCCCNCC1Cc2ccccc2O1)c1cccc(C(F)(F)F)c1 (stereo not shown) [Example 13, 2,3-dihydro-2-[N-{4-(3-trifluoromethylbenzoylamino)butyl}]aminomethylbenzo[b]furan] | 380 | 5.3 | 
12 | O=C(NCCCCNCC1Cc2ccccc2O1)c1cccc([N+](=O)[O-])c1 (stereo not shown) [Example 15, 2,3-dihydro-2-[N-{4-(3-nitrobenzoylamino)butyl}]aminomethylbenzo[b]furan] | 250 | 11 | 
13 | O=C(NCCNCC1Cc2ccccc2O1)c1ccccc1 (stereo not shown) [Example 19, 2-{N-(2-benzoylaminoethyl)}aminomethyl-2,3-dihydrobenzo[b]furan] |  | 3.7 | 
14 | Cc1cccc(C(=O)NCCNCC2Cc3ccccc3O2)c1 (stereo not shown) [Example 20, 2-[N-{2-(3-methylbenzoylamino)ethyl}]aminomethyl-2,3-dihydrobenzo[b]furan] |  | 1.6 | 
15 | O=C(NCCNCC1Cc2ccccc2O1)c1ccc(F)cc1 (stereo not shown) [Example 21, 2-[N-{2-(4-fluorobenzoyl)aminoethyl}]aminomethyl-2,3-dihydrobenzo[b]furan] |  | 2 | 
16 | O=C(NCCCNCC1Cc2ccccc2O1)c1ccc(F)cc1 (stereo not shown) [Example 23, 2-[N-{3-(4-fluorobenzoylamino)propyl}]aminomethyl-2,3-dihydrobenzo[b]furan] |  | 12 | 
17 | CN(CCCCNC(=O)c1ccccc1)CC1Cc2ccccc2O1 (stereo not shown) [Example 24, 2-{N-(4-benzoylaminobutyl)-N-methyl}aminomethyl-2,3-dihydrobenzo[b]furan] | 760 | 11 | 
18 | CCN(CCCCNC(=O)c1ccccc1)CC1Cc2ccccc2O1 (stereo not shown) [Example 25, 2-{N-(4-benzoylaminobutyl)-N-ethyl}aminomethyl-2,3-dihydrobenzo[b]furan] | 710 | 3.1 | 
19 | O=C(NCCCCNCC1Cc2ccccc2O1)c1ccccc1O (stereo not shown) [Example 29, 2,3-dihydro-2-[N-{4-(2-hydroxybenzoylamino)butyl}]aminomethylbenzo[b]furan] | 260 | 5.4 | 
20 | ^3H-Prazosin [reference compound] |  |  | Kd (adrenaline α1 receptor; value used in the Ki calculation, read-out: Kd of the radioactive ligand for the adrenaline α1 receptor): 0.133 nM
